Results as given in patent US5141953A, “Purpuromycin for the treatment of vaginal infections and pharmaceutical dosage forms for said use” (Gruppo Lepetit S.p.A., priority 1989, dated 1992).
Converted amounts (≈) assume the structure as drawn. Read-outs that look alike come from different tables or passages of the source.

Assays:
Candida albicans = conditions: cited from earlier work
Gardnerella vaginalis [1] = assay: MIC against Gardnerella vaginalis (ATCC 14018 and 11 clinical isolates), standard two-fold dilution; format: cell-based; conditions: for NUMBER OF STRAINS WITH MIC OF 8: MIC 8 mcg/ml; for NUMBER OF STRAINS WITH MIC OF 16: MIC 16 mcg/ml; for NUMBER OF STRAINS WITH MIC OF 32: MIC 32 mcg/ml; for NUMBER OF STRAINS WITH MIC OF 64: MIC 64 mcg/ml; for NUMBER OF STRAINS WITH MIC OF 4: MIC 4 mcg/ml
Method: The strains were grown on Casman medium (Difco) plus 5% (v/v) whole rabbit blood and 0.15 (v/v) lysed rabbit blood. Inoculum size: approximately 10^4 colony forming units per spot. Incubation in an anaerobic hood: 48 hours at 37° C.

yeasts = conditions: cited from earlier work
Trichomonas vaginalis = conditions: cited from earlier work
Gardnerella vaginalis [2] = conditions: cited from earlier work
[3] = test system: Bacteroides fragilis ATCC 23745; assay: MIC against Bacteroides fragilis, two-fold dilution method; format: cell-based; conditions: ATCC23745, anaerobic, 48 hours at 37° C., Wilkins-Chalgren broth, approximately 10^4 CFU/ml
Method: A further experiment representative of the activity of purpuromycin against other anaerobic bacteria which are usually associated with infectious vaginitis utilized Bacteroides fragilis ATCC […] as the test microorganism. The experiment was carried out by the two-fold dilution method in microliter plates using Wilkins-Chalgren broth (Difco).
Inoculum size: approximately 10^4 colony forming units/ml. Incubation in an anerobic hood: 48 hours at 37° C. Purpuromycin was dissolved in DMSO and was added to the culture medium as above.

[4] = test system: Candida albicans strain SKF 2270; assay: Topical treatment of yeast vaginal infection in ovariectomized rats; format: in vivo, rat; conditions: topical intravaginal; for Mean log10 CFU/smear sample ± SD: twice daily for three days, untreated 3.43 ± 0.55, vehicle 3.74 ± 0.60
Method: The effectiveness of purpuromycin in the topical treatment of yeast vaginal infection was also tested in ovariectomized rats (Charles River) treated subcutaneously with 4 mg of estradiol benzoate approximately two weeks after ovariectomy. Five days later they were inoculated intravaginally with approximately 5×10^6 colony forming units (CFU) of Candida albicans strain SKF 2270 in 25 microliters of Nutrient Broth (no.2, Oxoid) containing 15% (vol/vol) of glycerol. Topical intravaginal therapy was twice daily for three days, starting one day after infection, with 100 microliters of a purpuromycin suspension in a mixture of 10:90 DMSO-polyethylene glycol 400, corresponding to 2 or 5 mg/rat/treatment. The day after the last treatment, vaginal smear samples (calibrated 10 microliter loops) were diluted and plated for viable organism counts on Sabouraud agar (Difco). Each group contained 10 animals.

[5] = test system: fungi, including filamentous fungi (e.g., Trichophyton mentagrophytes) and yeasts e.g., Candida albicans; conditions: in vitro; cited from earlier work
Gram-negative bacteria = conditions: in vitro; cited from earlier work
Gram-positive bacteria = conditions: in vitro; cited from earlier work
Solubility = format: physicochemical
[6] = 12 strains tested, anaerobic, 48 hours at 37° C.
[7] = MIC >128 mcg/ml, 12 strains tested, anaerobic, 48 hours at 37° C.

For `C[C@@H]1[C@H](O)[C@@H](C)/C=C/C=C/C=C/C=C/C=C/C=C/C=C/[C@H](O[C@@H]2O[C@H](C)[C@@H](O)[C@H](N)[C@@H]2O)C[C@@H]2O[C@](O)(C[C@@H](O)C[C@@H](O)[C@H](O)CC[C@@H](O)C[C@@H](O)CC(=O)O[C@H]1C)C[C@H](O)[C@H]2C(=O)O` [Amphotericin B], the “effectiveness against Candida albicans infections” value (from here on “effectiveness”) (Candida albicans) is given as “effective”.

With `Clc1ccccc1C(c1ccccc1)(c1ccccc1)n1ccnc1` [Clotrimazole] the “NUMBER OF STRAINS WITH MIC OF 8” value (Gardnerella vaginalis [1]; [6]) was 2 strains, the “NUMBER OF STRAINS WITH MIC OF 16” value (Gardnerella vaginalis [1]; [6]) was 1 strains and the “NUMBER OF STRAINS WITH MIC OF 32” value (Gardnerella vaginalis [1]; [6]) was 2 strains. The “NUMBER OF STRAINS WITH MIC OF 64” value (Gardnerella vaginalis [1]; [6]) was 5 strains, the “NUMBER OF STRAINS WITH MIC OF >128” value (Gardnerella vaginalis [1]; [7]) was 2 strains and the “effectiveness” value (Candida albicans) was “effective”.

For `CC(=O)N1CCN(c2ccc(OCC3COC(Cn4ccnc4)(c4ccc(Cl)cc4Cl)O3)cc2)CC1` (centres unmarked) [Ketoconazole], the “effectiveness” value (Candida albicans) is listed as “effective”.

In the case of `Cc1ncc([N+](=O)[O-])n1CCO` [Metronidazole], the “NUMBER OF STRAINS WITH MIC OF 4” value (Gardnerella vaginalis [1]; [6]) is reported as 1 strains, the “NUMBER OF STRAINS WITH MIC OF 8” value (Gardnerella vaginalis [1]; [6]) is reported as 3 strains and the “NUMBER OF STRAINS WITH MIC OF 16” value (Gardnerella vaginalis [1]; [6]) is reported as 4 strains. The “NUMBER OF STRAINS WITH MIC OF 64” value (Gardnerella vaginalis [1]; [6]) was 1 strains, the “NUMBER OF STRAINS WITH MIC OF 128” value (Gardnerella vaginalis [1]; MIC 128 mcg/ml, 12 strains tested, anaerobic, 48 hours at 37° C.) was 3 strains and the activity against yeasts (yeasts) was “not active”. For the same compound, the “activity against Trichomonas vaginalis” value (Trichomonas vaginalis) was “active” and the “activity against Gardnerella vaginalis” value (Gardnerella vaginalis [2]) was “active”.

For `Clc1ccc(COC(Cn2ccnc2)c2ccc(Cl)cc2Cl)c(Cl)c1` (centres unmarked) [Miconazole], the MIC (Gardnerella vaginalis [1]; Gardnerella vaginalis, strains resistant to the agent, read-out: MIC (on resistant strains)) was 128 µg/mL (≈ 308 µM), the “NUMBER OF STRAINS WITH MIC OF 4” value (Gardnerella vaginalis [1]; [6]) was 1 strains and the “NUMBER OF STRAINS WITH MIC OF 8” value (Gardnerella vaginalis [1]; [6]) was 7 strains. For the same compound, the “NUMBER OF STRAINS WITH MIC OF 32” value (Gardnerella vaginalis [1]; [6]) was 2 strains, the “NUMBER OF STRAINS WITH MIC OF >128” value (Gardnerella vaginalis [1]; [7]) was 2 strains and the “effectiveness” value (Candida albicans) was “effective”.

For `C[C@@H]1[C@H](O)[C@@H](C)/C=C/C=C/CC/C=C/C=C/C=C/C=C/C(O[C@H]2O[C@H](C)[C@@H](O)[C@H](N)[C@@H]2O)CC2O[C@](O)(CC(O)C(O)CCC(O)CC(O)CC(O)CC(=O)O[C@H]1C)CC(O)C2C(=O)O` (some centres unmarked) [Nystatin], the “NUMBER OF STRAINS WITH MIC OF >128” value (Gardnerella vaginalis [1]) is listed as 12 strains and the “effectiveness” value (Candida albicans) is listed as “effective”.

In the case of `COC(=O)c1cc2cc3c(c(O)c2c(=O)o1)OC1(Cc2c(O)c4c(c(O)c2O1)C(=O)C(OC)=CC4=O)CC3O` (centres unmarked) [Purpuromycin], the MIC [3] is reported as 0.25 µg/mL (≈ 0.464 µM), the “Mean log10 CFU/smear sample ± SD” value ([4]; 2 mg/rat/treatment) is reported as 2.00 ± 0.75 log10 CFU/smear sample and the “Mean log10 CFU/smear sample ± SD” value ([4]; 5 mg/rat/treatment, *P <0.01 vs group 1 controls) is reported as 2.28 ± 0.78 log10 CFU/smear sample. For the same compound, the “numbers of viable yeast cells/sample” value ([4]; 2 or 5 mg/rat/treatment) was “significantly reduced”, the activity against fungi [5] was “active” and the MIC (Gardnerella vaginalis [1]; 48 h, all 12 Gardnerella vaginalis strains, read-out: concentration that inhibits the growth of all tested strains) was 8 µg/mL (≈ 14.9 µM). The “NUMBER OF STRAINS WITH MIC OF 8” value (Gardnerella vaginalis [1]; [6]) was 12 strains, the “activity on strains resistant to metronidazole, nystatin and miconozole” value (Gardnerella vaginalis [1]; resistant strains) was “active” and the “activity against Gram-negative bacteria” value (Gram-negative bacteria) was “active”. The “activity against Gram-positive bacteria” value (Gram-positive bacteria) was “active”, the “solubility in lower alkanols” value (Solubility; lower alkanols) was “practically unsoluble” and the solubility in water (Solubility; water) was “practically unsoluble”.

For `CC1(C)S[C@@H]2[C@H](NC(=O)[C@H](N)c3ccccc3)C(=O)N2[C@H]1C(=O)O` [ampicillin], the “activity against Gardnerella vaginalis” value (Gardnerella vaginalis [2]) is given as “active”.

In the case of `CC1=C(C(=O)O)N2C(=O)[C@@H](NC(=O)[C@H](N)c3ccccc3)[C@H]2SC1` [cefalexin], the “activity against Gardnerella vaginalis” value (Gardnerella vaginalis [2]) is given as “active”.

For `CO[C@@]1(NC(=O)Cc2cccs2)C(=O)N2C(C(=O)O)=C(COC(N)=O)CS[C@@H]21` [cefoxitin], the “activity against Gardnerella vaginalis” value (Gardnerella vaginalis [2]) is given as “active”.

For `O=C(Cc1cccs1)N[C@@H]1C(=O)N2C(C(=O)[O-])=C(C[n+]3ccccc3)CS[C@H]12` [cephaloridine], the “activity against Gardnerella vaginalis” value (Gardnerella vaginalis [2]) is listed as “active”.

In the case of `O=C(N[C@H](CO)[C@H](O)c1ccc([N+](=O)[O-])cc1)C(Cl)Cl` [chloramphenicol], the “activity against Gardnerella vaginalis” value (Gardnerella vaginalis [2]) is listed as “active”.

For `CCC[C@@H]1C[C@@H](C(=O)N[C@@H]([C@H]2O[C@H](SC)[C@H](O)[C@@H](O)[C@H]2O)[C@H](C)Cl)N(C)C1` [clindamycin], the “activity against Gardnerella vaginalis” value (Gardnerella vaginalis [2]) is listed as “active”.

In the case of `Clc1ccc(COC(Cn2ccnc2)c2ccc(Cl)cc2Cl)cc1` (centres unmarked) [econozole], the “effectiveness” value (Candida albicans) is listed as “effective”.

In the case of `CC[C@H]1OC(=O)[C@H](C)[C@@H](O[C@H]2C[C@@](C)(OC)[C@@H](O)[C@H](C)O2)[C@H](C)[C@@H](O[C@@H]2O[C@H](C)C[C@H](N(C)C)[C@H]2O)[C@](C)(O)C[C@@H](C)C(=O)[C@H](C)[C@@H](O)[C@]1(C)O` [erythromycin], the “activity against Gardnerella vaginalis” value (Gardnerella vaginalis [2]) is given as “active”.

For `OC(Cn1cncn1)(Cn1cncn1)c1ccc(F)cc1F` [fluconazole], the “effectiveness” value (Candida albicans) is given as “effective”.

In the case of `CN(C)c1ccc(C(=C2C=CC(=[N+](C)C)C=C2)c2ccc(N(C)C)cc2)cc1` [gentian violet], the “effectiveness” value (Candida albicans) is listed as “effective”.

In the case of `CC1(C)S[C@@H]2[C@H](NC(=O)Cc3ccccc3)C(=O)N2[C@H]1C(=O)O` [penicillin G], the “activity against Gardnerella vaginalis” value (Gardnerella vaginalis [2]) is listed as “active”.

For `CN[C@@H]1[C@H](O)[C@H](NC)[C@H]2O[C@@]3(O)C(=O)C[C@@H](C)O[C@H]3O[C@@H]2[C@H]1O` [spectinomycin], the “activity against Gardnerella vaginalis” value (Gardnerella vaginalis [2]) is given as “active”.

In the case of `Cc1cc(NS(=O)(=O)c2ccc(N)cc2)no1` [sulfamethoxazole], the “activity against Gardnerella vaginalis” value (Gardnerella vaginalis [2]) is listed as “active”.

In the case of `CN(C)C1C(=O)C(C(N)=O)=C(O)C2(O)C(=O)C3=C(O)c4c(O)cccc4C(C)(O)C3CC12` (centres unmarked) [tetracycline], the “activity against Gardnerella vaginalis” value (Gardnerella vaginalis [2]) is given as “active”.

For `CCS(=O)(=O)CCn1c([N+](=O)[O-])cnc1C` [tinidazole], the “activity against Trichomonas vaginalis” value (Trichomonas vaginalis) is listed as “active”.

For candicidin, the “effectiveness” value (Candida albicans) is listed as “effective”.

In the case of gentamicin, the “activity against Gardnerella vaginalis” value (Gardnerella vaginalis [2]) is given as “active”.
